Measurements taken from patent publication US20130053337A1, “GUANIDINYLATED AMINOGLYCOSIDE-LIPID CONJUGATES” (UNIVERSITY OF MANITOBA, priority 2010, published 2013).
In brackets after ≈: the same amount, converted by molar mass.

Experiments:
S. aureus ATCC 29213 = experiment: MIC, broth macrodilution (CLSI); assay type: cell-based, Staphylococcus aureus; details: S. aureus ATCC29213
Protocol: (§1) All experiments were performed in duplicate.
(§2) Bacterial isolates studied included both reference strains obtained from the American Type Culture Collection (ATCC) as well as clinical strains obtained from the CAN-ICU study which was a national surveillance study assessing the prevalence of antimicrobial resistant pathogens in Canadian intensive care units (Zhanel et al., 2008). Isolates were kept frozen in skim milk at −80° C. until minimum inhibitory concentration (MIC) testing was carried out. Following two subcultures from frozen stock, the in vitro activities of peptides were determined by macrobroth dilution in accordance with the Clinical and Laboratory Standards Institute (CLSI) 2006 guidelines (Zhanel et al., 2008). Stock solutions of peptides were prepared and dilutions made as described by CLSI. Test tubes contained doubling antimicrobial dilutions of cation adjusted Mueller-Hinton broth and inoculated to achieve a final concentration of approximately 5×10^5 cfu/ml then incubated in ambient air for 24 hours prior to reading. Colony counts were performed periodically to confirm inocula. Quality control was regularly performed using ATCC QC organisms.

MRSA ATCC 33592 = experiment: MIC, broth macrodilution (CLSI); assay type: cell-based, methicillin-resistant Staphylococcus aureus; details: MRSA ATCC33592
Protocol: as §1, §2

[1] = test system: S. epidermidis ATCC 14990; experiment: MIC, broth macrodilution (CLSI); assay type: cell-based, Staphylococcus epidermidis; details: S. epidermidis ATCC14990
Protocol: as §1, §2

MRSE CAN-ICU 61589 = experiment: MIC, broth macrodilution (CLSI); assay type: cell-based, methicillin-resistant Staphylococcus epidermidis
Protocol: as §1, §2

S. pneumoniae ATCC 49619 = experiment: MIC, broth macrodilution (CLSI), broth with 5% laked horse blood; assay type: cell-based, Streptococcus pneumoniae; details: S. pneumoniae ATCC49619
Protocol: as §1, §2

[2] = test system: E. coli (gentamicin-resistant) CAN-ICU 61714; experiment: MIC, broth macrodilution (CLSI); assay type: cell-based; details: E. coli CAN-ICU 61714
Protocol: as §1, §2

E. coli ATCC 25922 = experiment: MIC, broth macrodilution (CLSI); assay type: cell-based; details: E. coli ATCC25922
Protocol: as §1, §2

[3] = test system: P. aeruginosa (gentamicin-resistant) CAN-ICU 62308; experiment: MIC, broth macrodilution (CLSI); assay type: cell-based; details: P. aeruginosa CAN-ICU 62308
Protocol: as §1, §2

P. aeruginosa ATCC 27853 = experiment: MIC, broth macrodilution (CLSI); assay type: cell-based; details: P. aeruginosa ATCC27853
Protocol: as §1, §2

[4] = test system: sheep red blood cell (erythrocytes); experiment: Hemolytic assay (in vitro toxicity); details: 100 mg/L; sheep erythrocytes; percent hemolysis
Protocol: Antibacterial activity against Gram-positive and Gram-negative microorganisms was tested via broth macrodilution tests using CLSI methodology (Zhanel et al., 2008). Stock solutions of cationic lipids in water were brought to a concentration of 512 mg/L. Organisms were subcultured and isolated on blood agar, suspended in 3 mL of Mueller-Hinton broth at the turbidity of a […], and diluted to approximately 10^5 cfu/mL before introduction into tubes containing serially diluted lipopeptide antibiotic in Mueller-Hinton broth. Activity testing against S. pneumoniae used broth supplemented with laked horse blood to give 5% horse blood in experimental tubes. Turbidity of lipopeptide solution in broth required creation of control tubes lacking organisms serving as turbidity controls. All tubes were incubated overnight for 16-20 h at 37° C. […] All experiments were performed in duplicate. In-vitro toxicity was determined using a sheep red blood cell hemolytic assay as previously described (Dathe et al., 1996).
In vitro toxicity was determined using a sheep red blood cell (erythrocytes) hemolytic assay (Dathe et al., 1996). […] Erythrocytes were washed and resuspended in Tris buffered saline. The cell suspension was combined with varying concentrations (low to very high) of test and control antimicrobials (e.g., aminoglycosides and APTCs). The samples were centrifuged and the absorbance of the supernatants measured at 540 nm. Tris buffered saline and Triton X were used as negative and positive controls, respectively. The toxicity was assessed by percent hemolysis.

[5] = test system: methicillin-resistant S. aureus (MRSA); details: Bera et al., 2008; cited from earlier work
[6] = test system: E. coli (amikacin MIC 32 mg/L) CAN-ICU 63074; details: E. coli CAN-ICU 63074; Zhanel et al., 2008; cited from earlier work
[7] = test system: E. coli (amikacin MIC 32 mg/L) CAN-ICU 63074; experiment: MIC, broth macrodilution (CLSI); assay type: cell-based; details: E. coli CAN-ICU 63074
Protocol: as §1, §2

[8] = test system: E. coli (gentamicin-resistant) CAN-ICU 61714; details: E. coli CAN-ICU 61714; Zhanel et al., 2008; cited from earlier work
[9] = test system: P. aeruginosa (gentamicin-resistant) CAN-ICU 62308; details: P. aeruginosa CAN-ICU 62308; Zhanel et al., 2008; cited from earlier work

| Compound | MIC (S. aureus ATCC 29213) [µg/mL] | MIC (MRSA ATCC 33592) [µg/mL] | MIC [1] [µg/mL] | MIC (MRSE CAN-ICU 61589) [µg/mL] | MIC (S. pneumoniae ATCC 49619) [µg/mL] | MIC [2] [µg/mL] | MIC (E. coli ATCC 25922) [µg/mL] | MIC [3] [µg/mL] | MIC (P. aeruginosa ATCC 27853) [µg/mL] | hemolytic activity at 100 mg/L [4] [%] | MIC [5] [µg/mL] | MIC (strain description) [6] [µg/mL] | MIC [7] [µg/mL] | MIC (strain description) [8] [µg/mL] | MIC (strain description) [9] [µg/mL] |
| --- | --- | --- | --- | --- | --- | --- | --- | --- | --- | --- | --- | --- | --- | --- | --- |
| NC[C@@H]1O[C@H](O[C@H]2[C@@H](O)[C@H](O[C@@H]3[C@@H](O)[C@H](N)C[C@H](N)[C@H]3O[C@H]3O[C@H](CN)[C@@H](O)[C@H](O)[C@H]3N)O[C@@H]2CO)[C@H](N)[C@@H](O)[C@@H]1O [Neomycin B, reference compound] | 1 (≈ 1.63 µM) | 256 (≈ 416 µM) | 0.25 (≈ 0.407 µM) | 0.5 (≈ 0.813 µM) | 32 (≈ 52.1 µM) | 8 (≈ 13 µM) | 4 (≈ 6.51 µM) | 512 (≈ 833 µM) | 512 (≈ 833 µM) | <0.3 | 256 (≈ 416 µM) | – | – | – | – |
| NCC[C@H](O)C(=O)N[C@@H]1C[C@H](N)[C@@H](O[C@H]2O[C@H](CN)[C@@H](O)[C@H](O)[C@H]2O)[C@H](O)[C@H]1O[C@H]1O[C@H](CO)[C@@H](O)[C@H](N)[C@H]1O [amikacin] | – | – | – | – | – | – | – | – | – | – | – | 32 (≈ 54.6 µM) | – | – | – |
| Gentamicin [reference compound] | 1 | 2 | 0.25 | 32 | 4 | 128 | 1 | 128 | 8 | – | – | – | 8 | > 32 | > 32 |
